Usually MFC stands for the lowest tested concentration that kills the fungus rather than only halting it. Read a low MFC as greater fungicidal potency. Usually MIC stands for the least concentration at which growth counts as inhibited. The low end stands for inhibition by little substance, the high end for a need for much substance. By MBC is commonly meant the lowest tested concentration that kills the bacteria rather than only halting them.

Consider twelve molecules from ChEMBL document CHEMBL3045999, “Synthesis, characterization and antimicrobial activity of 4-amino-1-alkyl pyridinium salts” (Med Chem Res, 2012).

Active and inactive are the calls of the source. The calls are words filed in the database; no cut-off is given here. Where only a bound is given, the exact number is not on record here.

For data set [1], the system named is Candida albicans. Nature of the data set: Fungistatic activity against Candida albicans NCIM 3074 at 500 ug/disk after 24 hr by disk diffusion method. In kind it is functional, organism-based.
Data set [2] deals with Staphylococcus aureus. Nature of the data set: Antibacterial activity against Staphylococcus aureus NCIM 5021 at 500 ug/disc after 24 hr by disk diffusion method. It counts as functional. Particulars: NCIM 5021, 24 h, read-out: IZ.
In data set [3] the test system is Escherichia coli. As to the kind of experiment: Antibacterial activity against Escherichia coli NCIM 2065 at 500 ug/disk after 24 hr by disk diffusion method. It counts as functional. Particulars: NCIM 2065, 24 h, read-out: IZ.
Data set [4] concerns Nakaseomyces glabratus. Nature of the data set: Antifungal activity against Candida glabrata NCIM 3236 at 500 ug/disk after 24 hr by disk diffusion method. Conditions: NCIM 3236, 24 h, read-out: IZ. In kind it is functional. Background: Agar diffusion results depend on both activity and mobility in agar.
Data set [5] relates to Staphylococcus aureus. As to the kind of experiment: Bacteriostatic activity against Staphylococcus aureus NCIM 5021 at 500 ug/disc after 24 hr by disk diffusion method. In kind it is functional, organism-based.
For data set [6], the system named is Nakaseomyces glabratus. Nature of the data set: Fungistatic activity against Candida glabrata NCIM 3236 at 500 ug/disk after 24 hr by disk diffusion method. It counts as functional, organism-based.
Data set [7] has as its system Escherichia coli. As to the kind of experiment: Bacteriostatic activity against Escherichia coli NCIM 2065 at 500 ug/disk after 24 hr by disk diffusion method. In kind it is functional, organism-based.
Data set [8] has as its system Candida albicans. Nature of the data set: Antifungal activity against Candida albicans NCIM 3074 at 500 ug/disk after 24 hr by disk diffusion method. In kind it is functional. Conditions: NCIM 3074, 24 h, read-out: IZ.
Data set [9] deals with Candida albicans. Nature of the data set: Inhibition of Candida albicans phospholipase at 124.96 uM after 30 min.
A short description of data set [10]: Cytotoxicity against Homo sapiens (human) erythrocytes assessed as hemolytic activity at 15.62 uM after 1 hr. In kind it is cell-based, Erythrocyte. Conditions: read-out: Activity.
A short description of data set [11]: Cytotoxicity against Homo sapiens (human) erythrocytes assessed as hemolytic activity at 124.96 uM after 1 hr. In kind it is cell-based, Erythrocyte. Conditions: read-out: Activity.
Data set [12] relates to Candida albicans. Nature of the data set: Fungistatic activity against Candida albicans NCIM 3074 at 25 ug/disk after 24 hr by disk diffusion method. In kind it is functional, organism-based.
Data set [13] relates to Nakaseomyces glabratus. As to the kind of experiment: Fungistatic activity against Candida glabrata NCIM 3236 at 25 ug/disk after 24 hr by disk diffusion method. In kind it is functional, organism-based.
Data set [14] has as its system Escherichia coli. Nature of the data set: Bacteriostatic activity against Escherichia coli NCIM 2065 at 20 ug/disk after 24 hr by disk diffusion method. It counts as functional, organism-based.
Data set [15] deals with Staphylococcus aureus. As to the kind of experiment: Bacteriostatic activity against Staphylococcus aureus NCIM 5021 at 20 ug/disc after 24 hr by disk diffusion method. In kind it is functional, organism-based.
Data set [16] concerns Candida albicans. Nature of the data set: Antifungal activity against Candida albicans NCIM 3074 assessed as inhibition of germ tube formation after 3 to 4 hr. It counts as functional.
Data set [17] deals with Candida albicans. As to the kind of experiment: Fungicidal activity against Candida albicans NCIM 3074 after 24 hr by NCCLS broth microdilution method. It counts as functional. Particulars: NCIM 3074, 24 h. Background: In broth dilution the organism is exposed to a series of concentrations in liquid medium.
Data set [18] has as its system Staphylococcus aureus. As to the kind of experiment: Antibacterial activity against Staphylococcus aureus NCIM 5021 after 24 hr by NCCLS broth microdilution method. In kind it is functional. Conditions: NCIM 5021, 24 h.
Data set [19] relates to Candida albicans. Nature of the data set: Antifungal activity against Candida albicans NCIM 3074 after 24 hr by NCCLS broth microdilution method. It counts as functional. Particulars: NCIM 3074, 24 h.
Data set [20] concerns Staphylococcus aureus. Nature of the data set: Bactericidal activity against Staphylococcus aureus NCIM 5021 after 24 hr by NCCLS broth microdilution method. In kind it is functional. Particulars: NCIM 5021, 24 h.

Turning to `CCCCCCn1ccc(=N)cc1`, the result in the data set with Candida albicans [1] was Active. The figures for the zone of inhibition at 500 µg/disc in the data set with Staphylococcus aureus [2], in the data set on Escherichia coli [3] and in the data set with Nakaseomyces glabratus [4] were 21 mm, 18 mm and 10 mm, respectively.
For the molecule `CCCC[n+]1ccc(N)cc1`, the result with Staphylococcus aureus [5] and with Escherichia coli [7] was Active. The result in the data set with Candida albicans [1] and with Nakaseomyces glabratus [6] was inactive.
`CCCCCCCCCCn1ccc(=N)cc1`: the zone of inhibition at 500 µg/disc in the data set on Candida albicans [8] stood at 23.5 mm; in the data set on Staphylococcus aureus [2], 28 mm; in the data set with Escherichia coli [3], 29 mm; with Nakaseomyces glabratus [4], 26 mm. For the same molecule, the inhibition entry in the data set with Candida albicans [9] was “Active”. Further, the hemolysis at 1 h, 15.62 µM in data set [10] came out at 0.57%. Also, in [11], the hemolysis at 1 h, 124.96 µM was 97.4%.
Consider `CCCCCCCCCCCCCC[n+]1ccc(N)cc1`, for which the zone of inhibition at 500 µg/disc in the data set on Candida albicans [8] was determined as 9 mm; in the data set on Staphylococcus aureus [2], 6 mm; in the data set with Escherichia coli [3] it was 6.5 mm; with Nakaseomyces glabratus [4], 8.5 mm.
On to `CN[C@@H]1[C@H](O[C@H]2[C@H](O[C@H]3[C@H](O)[C@@H](O)[C@H](N=C(N)N)[C@@H](O)[C@@H]3N=C(N)N)O[C@@H](C)[C@]2(O)C=O)O[C@@H](CO)[C@H](O)[C@H]1O` [STREPTOMYCIN], for which the result with Candida albicans [12] and in the data set on Nakaseomyces glabratus [13] was inactive. Also, the zone of inhibition at 500 µg/disc with Staphylococcus aureus [2] came to 30 mm; with Escherichia coli [3] it was 32 mm.
With `C[C@@H]1[C@H](O)[C@@H](C)/C=C/C=C/C=C/C=C/C=C/C=C/C=C/[C@H](O[C@@H]2O[C@H](C)[C@@H](O)[C@H](N)[C@@H]2O)C[C@@H]2O[C@](O)(C[C@@H](O)C[C@@H](O)[C@H](O)CC[C@@H](O)C[C@@H](O)CC(=O)O[C@H]1C)C[C@H](O)[C@H]2C(=O)O` [AMPHOTERICIN B], the zone of inhibition at 500 µg/disc was determined as 10 mm with Candida albicans [8] and 14 mm in the data set with Nakaseomyces glabratus [4]. Further, the result in the data set on Escherichia coli [14] and in the data set on Staphylococcus aureus [15] was inactive.
`CCCCCCCCCCCCCCCC[n+]1ccc(N)cc1.[Br-]`: the INH in the data set on Candida albicans [16] is 15.62 µM. For the same molecule, the MFC with Candida albicans [17] stood at 31.2 µM. Further, the MIC with Staphylococcus aureus [18] is < 15.6 µM; against Candida albicans [19], 15.6 µM. For the same molecule, the zone of inhibition at 500 µg/disc in the data set with Candida albicans [8] stood at 26.5 mm; with Staphylococcus aureus [2] it was 36 mm; in the data set on Escherichia coli [3] it was 34 mm; in the data set on Nakaseomyces glabratus [4], 30 mm. This molecule also gave an MBC in the data set on Staphylococcus aureus [20] of 15.6 µM.
`CCn1ccc(=N)cc1`: the result with Staphylococcus aureus [5], with Candida albicans [1], in the data set with Nakaseomyces glabratus [6] and with Escherichia coli [7] was inactive.
`CCCCCCCCn1ccc(=N)cc1`: the zone of inhibition at 500 µg/disc with Candida albicans [8] was 14 mm; in the data set with Staphylococcus aureus [2] it was 25 mm; in the data set on Escherichia coli [3], 27 mm; in the data set on Nakaseomyces glabratus [4], 22 mm.
For `CCC[n+]1ccc(N)cc1`, the result in the data set with Staphylococcus aureus [5] and with Escherichia coli [7] was Active. Also, the outcome with Candida albicans [1] and in the data set with Nakaseomyces glabratus [6] was inactive.
With `CCCCC[n+]1ccc(N)cc1`, the result with Candida albicans [1] was inactive. Moreover, the results for the zone of inhibition at 500 µg/disc in the data set on Staphylococcus aureus [2] and in the data set on Escherichia coli [3] were 14 mm and 16 mm, respectively. In addition, in the data set on Nakaseomyces glabratus [6], the outcome was Active.
On to `CCCCCCC[n+]1ccc(N)cc1`, for which the zone of inhibition at 500 µg/disc with Candida albicans [8] was found to be 10.5 mm; with Staphylococcus aureus [2], 25 mm; with Escherichia coli [3] it was 26 mm; in the data set on Nakaseomyces glabratus [4], 16 mm.
